Patent publication US7550469B2, “Heterocyclic amide derivatives and their use as dopamine D3 receptor ligands” (Aventis Pharmaceuticals Inc., priority 2001, dated 2009)
Like-named read-outs stand apart in the source and are kept apart here.

Target: T1, cloned human dopamine D3 receptors (Homo sapiens, UniProt P35462)
T1 construct: expressed in transfected cells; membrane homogenate
Test: [N-Methyl-3H]Spiroperidol binding to cloned human dopamine D3 receptors (Protocol 1)
Source text: [N-Methyl-^3H]Spiroperidol Binding to Cloned Human Dopamine D3 Receptors
This assay measures the in vitro activity of compounds on cloned human dopamine (D3) receptors and predicts the direct dopamine-blocking properties of putative neuropsychiatric agents at human dopamine D3 receptors.
The D3 gene was isolated from a human striatal cDNA library (Stratagene). The gene was sequenced and sub-cloned into the expression vector RC/RSV (Invitrogen). CHO (Chinese Hamster Ovary) cells were stably transfected with 10 μg of the D3/RSV plasmid using the DOTAP method from Boehringer Mannheim and 72 clones that were G418 resistant were isolated. Using mRNA and binding displacement data a single high expressing clone was identified. This clone was then grown in large batches for the purpose of developing a 96 well format assay.
• 1. One plate (10 cm) with approximately 2-3 million D3 cells per plate is incubated with 1 ml of Trypsin-EDTA at room temperature for ˜2 min or until cells have lifted off plates. Four ml of Ham's F12+10% Fetal Bovine Serum+1% Penicillin/Streptomycin+G418 (400 μg/ml) medium are added to resuspend cells and 1 ml of this is added to each large plate (15 cm) containing 19 ml of the-same medium as mentioned above. • 2. The 5 large plates are incubated at 37° C.+5% CO2 for ˜3 days or until the cells are confluent. • 3. After these plates are confluent, they are split into 10 large plates. Medium is aspirated off, 2 ml of Trypsin-EDTA are added to each plate and plates are incubated at RT for 2 min or until cells have lifted off the plate. Eight ml of the F12 medium (same medium as #1 above) are added to each plate (10 ml total) to resuspend the cells and 5 ml are transferred to the 2 new plates containing 15 ml of the F12 media. • 4. The 10 large plates are incubated at 37° C.+5% CO2 for ˜2 days or until the cells are confluent. • 5. The 10 large plates are split into 60 large plates (using Trypsin-EDTA as #3 except 4 ml of F12 medium are added to resuspend cells and 1 ml is aliquoted to 6 new plates containing 19 ml of F12 medium each). • 6. Plates are incubated at […]+5% CO2 for ˜3 days or until cell are confluent. • 7. The 60 large plates are then split into 60 roller bottles (100-150 million cells/bottle). Medium is aspirated off, 2 ml of Trypsin-EDTA are added to each plate and incubated at RT for ˜2 minutes or until cells have lifted off plates. Eight ml of F12 medium are added to each plate to resuspend cells and the entire 10 ml are added to 1 roller bottle containing 90 ml of the F12 medium. • 8. The 60 roller bottles are immediately placed on their sides and transferred to the roller bottle incubator. They are incubated at 37° C.+5% CO2 for ˜3-5 days. Cells are spun at 30-40% motor speed in the Forma incubator. • 9. Medium is poured off and cells are washed 2× in PBS. • 10. Cells are then scraped off in 20 ml of PBS and the bottles are rinsed again with 5 ml of PBS to remove any remaining cells. Cells are stored on ice before membrane preparation. • 11. The yield for 60 D3 roller bottles has varied from ˜260-500 mg. • Note: All tissue culture reagents are from Gibco-BRL. C. Membrane Preparation
The cells are harvested into 250 ml centrifuge tubes with 100 volumes of cold phosphate buffered saline (PBS) and spun down (1200×G for 10 min at 4° C.). The medium is removed and 100 ml PBS are added to each centrifuge tube, cells are resuspend and spun down again. The PBS is removed and the final pellet is homogenized in an appropriate volume of 10% DMSO with a polytron on ice at a medium setting.
1. 0.5M Tris Buffer, pH 7.7 • a) 44.4 g Tris HCl 26.5 g Tris Base q.s. to 1 Liter (0.5 M Tris buffer, pH 7.7 at 37° C.) • b) make a 1:10 dilution in distilled H2O (0.05 M. Tris buffer, pH 7.7) 2. Tris Buffer Containing Physiological Salts • a) Stock buffer • NaCl 7.014 g • KCl 0.372 g • CaCl2 0.222 g • MgCl2 0.204 g • q.s. To 100 ml with 0.5 M. Tris Buffer • b) Dilute 1:10 in distilled H2O […]

[1] = the 16th table, read-out: D3 Ki
[2] = the 15th table, read-out: D3 Ki
[3] = the 13th table, unit inferred, read-out: D3Ki
[4] = the 20th table, read-out: D3 Ki
[5] = the 21st table, read-out: D3 Ki
[6] = the 23rd table, read-out: D3 Ki
[7] = the 14th table, read-out: D3 Ki
[8] = the 22nd table, read-out: D3 Ki

T1 sequence (P35462 whole entry): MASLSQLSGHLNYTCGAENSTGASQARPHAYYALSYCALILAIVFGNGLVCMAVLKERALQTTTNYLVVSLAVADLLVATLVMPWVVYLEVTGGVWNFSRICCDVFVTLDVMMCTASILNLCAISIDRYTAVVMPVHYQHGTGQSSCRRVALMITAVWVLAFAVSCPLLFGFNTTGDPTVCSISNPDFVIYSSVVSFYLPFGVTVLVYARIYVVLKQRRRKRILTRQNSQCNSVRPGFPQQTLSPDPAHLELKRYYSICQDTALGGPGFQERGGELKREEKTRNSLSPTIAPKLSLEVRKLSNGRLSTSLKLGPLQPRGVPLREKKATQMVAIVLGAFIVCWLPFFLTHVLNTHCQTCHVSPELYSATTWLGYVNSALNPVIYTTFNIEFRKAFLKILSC

COc1cc(Br)cc2cc(C(=O)NCCCCN3CCCN(c4csc5cc(F)ccc45)CC3)oc12 [compound 827125]
Ki (Table 2, read-out: D3K1): 28.3 nM | Ki [1]: 28.3 nM

O=C(Cc1ccccc1)NCCCCN1C2CCC1CC(c1noc3cc(F)ccc13)C2 (stereo not shown) [compound 816327]
Ki [2]: 392 nM

O=C(NCCCCN1CCCN(c2csc3cc(C(F)(F)F)ccc23)CC1)c1cnc2ccccc2n1 [S980643]
Ki [3]: 96 nM

O=C(NCc1ccoc1CN1CCN(c2csc3cc(F)ccc23)CC1)c1cc2ccccc2s1 [compound 825844]
Ki [4]: 601 nM

O=C(NCCCCN1CCN(c2csc3cc(C(F)(F)F)ccc23)CC1)c1ccc([N+](=O)[O-])cc1 [compound 815549]
Ki (read-out: D3K1): 2.1 nM

COc1ccc(C(=O)NCCCCN2[C@H](C)CN(c3csc4cc(F)ccc34)C[C@@H]2C)cc1OC [compound 826940]
Ki [5]: 49.2 nM

FC(F)(F)c1ccc2c(N3CCN(C[C@@H]4C[C@H]4CNCCSc4ccc(Cl)cc4)CC3)csc2c1 [compound 832388]
Ki [6]: 71.9 nM

COc1ccc2[nH]c(C(=O)NCC3CCC3CN3CCN(c4csc5cc(C(F)(F)F)ccc45)CC3)cc2c1 (stereo not shown) [compound 826291]
Ki (read-out: D3K1): 37 nM

CC1=C(C(=O)NCCCCN2[C@H](C)CN(c3csc4cc(F)ccc34)C[C@@H]2C)Cc2ccccc21 [compound 827255]
Ki [5]: 53.7 nM

O=C(Nc1ccc(CN2CCN(c3csc4cc(F)ccc34)CC2)cc1)c1cccs1 [compound 822213]
Ki (the 19th table, read-out: D3 Ki): 63 nM

C[C@@H]1CN(c2csc3cc(C(F)(F)F)ccc23)C[C@H](C)N1CCCCNC(=O)c1cccc(Cl)c1 [compound 827038]
Ki [5]: 155 nM

COc1ccc(C(=O)N[C@@H](CO)CCCN2CCN(c3csc4cc(C(F)(F)F)ccc34)CC2)cc1 [compound 815668]
Ki (read-out: D3K1): 150 nM | Ki [7]: 150 nM

C[C@@H]1CN(c2csc3cc(F)ccc23)C[C@H](C)N1CCCCNC(=O)c1ccc(OC(F)(F)F)cc1 [compound 827049]
Ki [5]: 50.9 nM

COc1ccccc1C(=O)NCCCCN1CCN(c2n[nH]c3ccsc23)CC1 [compound 825159]
Ki [8]: 92.1 nM

CN(C)c1ccccc1C(=O)NCCCCN1CCCN(c2csc3cc(F)ccc23)CC1 [compound 817269]
Ki (Table 2, read-out: D3K1): 4.74 nM | Ki [1]: 4.74 nM

COc1cc(OC)cc(C(=O)NCCCN2CCCN(c3csc4cc(F)ccc34)CC2)c1 [compound 827136]
Ki (Table 2, read-out: D3K1): 268 nM | Ki [1]: 268 nM

O=C(NCCCCN1CCCN(c2csc3cc(F)ccc23)CC1)c1cc2cc(OC(F)(F)F)ccc2o1 [compound 827127]
Ki (Table 2, read-out: D3K1): 74.3 nM | Ki [1]: 74.3 nM

O=C(NCCCCCN1CCN(c2csc3cc(F)ccc23)CC1)c1cccc(C(F)(F)F)c1 [compound 826780]
Ki [7]: 4.46 nM

O=C(NCCCCN1CCCN(c2csc3cc(F)ccc23)CC1)c1cc2c(Cl)cc(Cl)cc2o1 [compound 827124]
Ki (Table 2, read-out: D3K1): 16.6 nM | Ki [1]: 16.6 nM

FC(F)(F)c1ccc2c(N3CCN(C[C@@H]4C[C@H]4CNC4CCN(CC5CC5)CC4)CC3)csc2c1 [compound 832387]
Ki [6]: 36.5 nM

O=C(NCCCCN1CCCN(c2csc3cc(F)ccc23)CC1)c1ccc2ccccc2c1 [compound 822156]
Ki [3]: 0.67 nM

O=C(NCCCCN1CCN(c2noc3ccsc23)CC1)c1cc(C(F)(F)F)ccc1F [compound 829691]
Ki [8]: 151 nM

O=C(CCC1CCCC1)NC/C=C\CN1CCN(c2csc3cc(C(F)(F)F)ccc23)CC1 [compound 826345]
Ki (read-out: D3K1): 77 nM

O=C(NCCCCN1CCCN(c2csc3cc(C(F)(F)F)ccc23)CC1)c1cccc(C(F)(F)F)c1 [S980633]
Ki [3]: 230 nM

O=C(NCCCN1CCCN(c2csc3cc(F)ccc23)CC1)c1cccc(F)c1 [compound 827142]
Ki (Table 2, read-out: D3K1): 101 nM | Ki [1]: 101 nM

COc1ccccc1C(=O)NCc1ccoc1CN1CCN(c2csc3cc(F)ccc23)CC1 [compound 825842]
Ki [4]: 532 nM

O=C(NCCCCCCN1CCN(c2csc3cc(C(F)(F)F)ccc23)CC1)c1n[nH]c2ccccc12 [compound 826743]
Ki (read-out: D3K1): 15 nM | Ki [7]: 15 nM

O=C(NC/C=C/CN1CCN(c2csc3cc(C(F)(F)F)ccc23)CC1)c1ccccc1 [compound 827715]
Ki (read-out: D3K1): 24 nM

CCCCOc1ccc(C(=O)NCCCCN2C3CCC2CC(c2noc4ccccc24)C3)cc1 (stereo not shown) [compound 816529]
Ki [2]: 42.5 nM

CCOc1ccc(C(=O)NCCCCCN2CCC(c3noc4ccsc34)CC2)cc1 [compound 816198]
Ki [3]: 110 nM

CC1(C)C(CNC(=O)c2ccc(F)cc2)C1CN1CCN(c2csc3cc(C(F)(F)F)ccc23)CC1 (stereo not shown) [compound 826273]
Ki (read-out: D3K1): 51 nM

O=C(Cc1ccc(Cl)cc1)NCCCCN1CCCN(c2csc3cc(F)ccc23)CC1 [S982509]
Ki [3]: 12.8 nM

O=C(NC/C=C\CN1CCN(c2csc3cc(C(F)(F)F)ccc23)CC1)c1ccccc1 [compound 826337]
Ki (read-out: D3K1): 29 nM

O=C(NCCCCCN1CCCN(c2csc3cc(F)ccc23)CC1)c1ccc(-c2ccccn2)s1 [S984501]
Ki [3]: 15.8 nM

O=C(NC/C=C/CN1CCN(c2csc3cc(C(F)(F)F)ccc23)CC1)c1cc2ccccc2[nH]1 [compound 827742]
Ki (Table 2, read-out: D3K1): 21.3 nM

FC(F)(F)c1cccc2c(C3CCN(C[C@@H]4C[C@H]4CNCC45CC6CC(CC(C6)C4)C5)CC3)noc12 [compound 832783]
Ki [6]: 47.6 nM

O=C1NCCN1CCNCC1CC1CN1CCN(c2csc3cc(C(F)(F)F)ccc23)CC1 (racemic) [compound 832609]
Ki [6]: 39.6 nM

O=C(NCCCCCN1CCCN(c2csc3cc(F)ccc23)CC1)c1cccc2cc[nH]c12 [S984495]
Ki [3]: 26.2 nM

COc1cc(OC)cc(C(=O)NCCCCCN2CCCN(c3csc4cc(F)ccc34)CC2)c1 [S984487]
Ki [3]: 31.8 nM

O=C(NCCCCN1C2CCC1CC(c1noc3cc(F)ccc13)C2)c1ccc(Br)cc1 (stereo not shown) [compound 816335]
Ki [2]: 268 nM

O=C(c1ccc(-c2ccccc2)cc1)N(Cc1ccccc1)CC1CC1CN1CCCN(c2csc3cc(F)ccc23)CC1 (racemic) [compound 830397]
Ki (the 17th table, read-out: D3 Ki): 55.4 nM

C[C@@H]1CN(c2csc3cc(C(F)(F)F)ccc23)C[C@H](C)N1CCCCNC(=O)c1cccc2ccccc12 [compound 827041]
Ki [5]: 357 nM

FC(F)(F)c1ccc2c(N3CCN(C[C@@H]4C[C@H]4CNCCc4cccnc4)CC3)csc2c1 [compound 832281]
Ki [6]: 5.59 nM

O=C(NCc1sccc1CN1CCN(c2csc3cc(F)ccc23)CC1)c1cc2ccccc2o1 [compound 826331]
Ki (the 18th table, read-out: D3 Ki): 51 nM

COc1ccc2[nH]c(C(=O)NCCCCCN3CCCN(c4csc5cc(F)ccc45)CC3)cc2c1 [S984505]
Ki [3]: 13 nM

O=C(NCCCCCCN1CCN(c2csc3cc(C(F)(F)F)ccc23)CC1)c1cccc(Cl)c1 [compound 826747]
Ki (read-out: D3K1): 0.12 nM | Ki [7]: 0.12 nM

CSc1ncccc1C(=O)NCCCCN1C2CCC1CC(c1noc3ccccc13)C2 (stereo not shown) [compound 816541]
Ki [2]: 511 nM

O=C(NCCCCN1CCCN(c2csc3cc(F)ccc23)CC1)c1ccsc1 [S977829]
Ki [3]: 4.18 nM

O=C(NCCCCN1CCCN(c2csc3cc(C(F)(F)F)ccc23)CC1)c1ccsc1 [S980656]
Ki [3]: 28 nM

O=C(NC(CO)CCCN1CCN(c2csc3cc(C(F)(F)F)ccc23)CC1)c1cc2ccc(Cl)cc2s1 (stereo not shown) [compound 815686]
Ki (Table 2, read-out: D3K1): 275 nM | Ki (read-out: D3K1): 275 nM | Ki [7]: 275 nM
